# Earlier results, collected in paper PMC8515052, “PepVAE: Variational Autoencoder Framework for Antimicrobial Peptide Generation and Activity Prediction” (Frontiers in Microbiology, 2021).
# Tested on: Acinetobacter baumannii
# Conditions: murine model of infection; ref Stokes et al., 2020
# Description: Many pathogenic bacteria are resistant to the majority of, if not all, antibiotics that are currently being isolated using traditional methods. Because of this, generation of new antimicrobials is critical for survival in the post-antibiotic era ([Brown and Wright, 2016]). At the current rate, annual global death due to antibiotic resistance is projected to exceed 10 million by 2050, costing 100 trillion USD ([O’Neill, 2014]); however, investment has not kept up with the task with very few antibiotics currently in clinical development and far fewer likely to be approved for treatment of patien ...
smiles,measurement,value
Nc1nnc(Sc2ncc([N+](=O)[O-])s2)s1 [halicin],activity against Acinetobacter baumannii,displays activity
